Experimental data published in ChEMBL document CHEMBL3046635, “Synthesis and Herbicidal Activity of New Pyrazole-4-carboxamide Derivatives” (J Pestic Sci, 2004).
Active and inactive are the calls of the source. Unless noted, the rule behind the calls is not given here.

Legend:
[1] = test system: Eleocharis acicularis; experiment: Pre-emergence herbicidal activity against Eleocharis acicularis at 100 g a.i/ha measured after 14 days; format: functional, organism-based
[2] = test system: Oryza sativa; experiment: Phytotoxicity against Oryza sativa cv. Koshihikari (rice) at 100 g a.i/ha measured after 14 days; format: organism-based; settings: in vivo, 336 h
[3] = test system: Schoenoplectiella juncoides; experiment: Pre-emergence herbicidal activity against Schoenoplectiella juncoides at 100 g a.i/ha measured after 14 days; format: functional, organism-based
[4] = test system: Pontederia vaginalis; experiment: Pre-emergence herbicidal activity against Monochoria vaginalis at 100 g a.i/ha measured after 14 days; format: functional, organism-based
[5] = test system: Ammannia multiflora; experiment: Pre-emergence herbicidal activity against Ammannia multiflora at 100 g a.i/ha measured after 14 days; format: functional, organism-based
[6] = test system: Rotala indica; experiment: Pre-emergence herbicidal activity against Rotala indica at 100 g a.i/ha measured after 14 days; format: functional, organism-based
[7] = test system: Elatine triandra; experiment: Pre-emergence herbicidal activity against Elatine triandra at 100 g a.i/ha measured after 14 days; format: functional, organism-based
[8] = test system: Lindernia procumbens; experiment: Pre-emergence herbicidal activity against Lindernia procumbens at 100 g a.i/ha measured after 14 days; format: functional, organism-based
[9] = test system: Cyperus difformis; experiment: Pre-emergence herbicidal activity against Cyperus difformis at 100 g a.i/ha measured after 14 days; format: functional, organism-based
[10] = test system: Echinochloa oryzicola; experiment: Pre-emergence herbicidal activity against Echinochloa oryzicola at 100 g a.i/ha measured after 14 days; format: functional, organism-based
[11] = test system: Oryza sativa; experiment: Phytotoxicity against Oryza sativa cv. Koshihikari (rice) at 500 g a.i/ha measured after 14 days; format: organism-based; settings: in vivo, 336 h
[12] = test system: Eleocharis acicularis; experiment: Pre-emergence herbicidal activity against Eleocharis acicularis at 500 g a.i/ha measured after 14 days; format: functional, organism-based
[13] = test system: Pontederia vaginalis; experiment: Pre-emergence herbicidal activity against Monochoria vaginalis at 500 g a.i/ha measured after 14 days; format: functional, organism-based
[14] = test system: Schoenoplectiella juncoides; experiment: Pre-emergence herbicidal activity against Schoenoplectiella juncoides at 500 g a.i/ha measured after 14 days; format: functional, organism-based
[15] = test system: Ammannia multiflora; experiment: Pre-emergence herbicidal activity against Ammannia multiflora at 500 g a.i/ha measured after 14 days; format: functional, organism-based
[16] = test system: Elatine triandra; experiment: Pre-emergence herbicidal activity against Elatine triandra at 500 g a.i/ha measured after 14 days; format: functional, organism-based
[17] = test system: Rotala indica; experiment: Pre-emergence herbicidal activity against Rotala indica at 500 g a.i/ha measured after 14 days; format: functional, organism-based
[18] = test system: Lindernia procumbens; experiment: Pre-emergence herbicidal activity against Lindernia procumbens at 500 g a.i/ha measured after 14 days; format: functional, organism-based
[19] = test system: Echinochloa oryzicola; experiment: Pre-emergence herbicidal activity against Echinochloa oryzicola at 500 g a.i/ha measured after 14 days; format: functional, organism-based
[20] = test system: Cyperus difformis; experiment: Pre-emergence herbicidal activity against Cyperus difformis at 500 g a.i/ha measured after 14 days; format: functional, organism-based
[21] = test system: Eleocharis acicularis; experiment: Post-emergence herbicidal activity against Eleocharis acicularis assessed as bleaching of stem/leaf parts; format: functional, organism-based; also: test concentration or dose not given here
[22] = test system: Eleocharis acicularis; experiment: Pre-emergence herbicidal activity against Eleocharis acicularis assessed as bleaching of stem/leaf parts; format: functional, organism-based
[23] = test system: Ammannia multiflora; experiment: Pre-emergence herbicidal activity against Ammannia multiflora assessed as bleaching of stem/leaf parts; format: functional, organism-based
[24] = test system: Rotala indica; experiment: Pre-emergence herbicidal activity against Rotala indica assessed as bleaching of stem/leaf parts; format: functional, organism-based
[25] = test system: Elatine triandra; experiment: Pre-emergence herbicidal activity against Elatine triandra assessed as bleaching of stem/leaf parts; format: functional, organism-based
[26] = test system: Lindernia procumbens; experiment: Pre-emergence herbicidal activity against Lindernia procumbens assessed as bleaching of stem/leaf parts; format: functional, organism-based
[27] = test system: Schoenoplectiella juncoides; experiment: Pre-emergence herbicidal activity against Schoenoplectiella juncoides assessed as bleaching of stem/leaf parts; format: functional, organism-based
[28] = test system: Pontederia vaginalis; experiment: Pre-emergence herbicidal activity against Monochoria vaginalis assessed as bleaching of stem/leaf parts; format: functional, organism-based
[29] = test system: Cyperus difformis; experiment: Pre-emergence herbicidal activity against Cyperus difformis assessed as bleaching of stem/leaf parts; format: functional, organism-based
[30] = test system: Echinochloa oryzicola; experiment: Pre-emergence herbicidal activity against Echinochloa oryzicola assessed as bleaching of stem/leaf parts; format: functional, organism-based
[31] = test system: Ammannia multiflora; experiment: Post-emergence herbicidal activity against Ammannia multiflora assessed as bleaching of stem/leaf parts; format: functional, organism-based; also: test concentration or dose not given here
[32] = test system: Elatine triandra; experiment: Post-emergence herbicidal activity against Elatine triandra assessed as bleaching of stem/leaf parts; format: functional, organism-based; also: test concentration or dose not given here
[33] = test system: Rotala indica; experiment: Post-emergence herbicidal activity against Rotala indica assessed as bleaching of stem/leaf parts; format: functional, organism-based; also: test concentration or dose not given here
[34] = test system: Schoenoplectiella juncoides; experiment: Post-emergence herbicidal activity against Schoenoplectiella juncoides assessed as bleaching of stem/leaf parts; format: functional, organism-based; also: test concentration or dose not given here
[35] = test system: Lindernia procumbens; experiment: Post-emergence herbicidal activity against Lindernia procumbens assessed as bleaching of stem/leaf parts; format: functional, organism-based; also: test concentration or dose not given here
[36] = test system: Pontederia vaginalis; experiment: Post-emergence herbicidal activity against Monochoria vaginalis assessed as bleaching of stem/leaf parts; format: functional, organism-based; also: test concentration or dose not given here
[37] = test system: Cyperus difformis; experiment: Post-emergence herbicidal activity against Cyperus difformis assessed as bleaching of stem/leaf parts; format: functional, organism-based; also: test concentration or dose not given here
[38] = test system: Echinochloa oryzicola; experiment: Post-emergence herbicidal activity against Echinochloa oryzicola assessed as bleaching of stem/leaf parts; format: functional, organism-based; also: test concentration or dose not given here

SMILES | Activity [1] | Activity [2] | Activity [3] | Activity [4] | Activity [5] | Activity [6] | Activity [7] | Activity [8] | Activity [9] | Activity [10] | Activity [11] | Activity [12] | Activity [13] | Activity [14] | Activity [15] | Activity [16] | Activity [17] | Activity [18] | Activity [19] | Activity [20] | other results
CCONC(=O)c1cn(CC)nc1OCc1cccc(C(F)(F)F)c1 | inactive | Non-toxic | inactive | inactive | Active | Active | Active | Active | Active | Active | Non-toxic | Active | Active | Active | Active | Active | Active | Active | Active | Active | Activity [21]: Active; Activity [22]: Active; Activity [23]: Active; Activity [24]: Active; Activity [25]: Active; Activity [26]: Active; Activity [27]: Active; Activity [28]: Active; Activity [29]: Active; Activity [30]: Active; Activity [31]: Active; Activity [32]: Active; Activity [33]: Active; Activity [34]: Active; Activity [35]: Active; Activity [36]: Active; Activity [37]: Active; Activity [38]: Active
Cn1cc(C(=O)NOc2ccccc2)c(OCc2cccc(C(F)(F)F)c2)n1 | Active | Non-toxic | inactive | Active | Active | Active | Active | Active | Active | Active | Non-toxic | Active | Active | Active | Active | Active | Active | Active | Active | Active | Activity [21]: Active; Activity [22]: Active; Activity [23]: Active; Activity [24]: Active; Activity [25]: Active; Activity [26]: Active; Activity [27]: Active; Activity [28]: Active; Activity [29]: Active; Activity [30]: Active; Activity [31]: Active; Activity [32]: Active; Activity [33]: Active; Activity [34]: Active; Activity [35]: Active; Activity [36]: Active; Activity [37]: Active; Activity [38]: Active
Cn1cc(C(=O)Nc2ccccc2)c(OCc2cccc(C(F)(F)F)c2)n1 | Active | Non-toxic | inactive | Active | Active | Active | Active | Active | inactive | Active | Non-toxic | Active | Active | Active | Active | Active | Active | Active | Active | Active | Activity [21]: Active; Activity [22]: Active; Activity [23]: Active; Activity [24]: Active; Activity [25]: Active; Activity [26]: Active; Activity [27]: Active; Activity [28]: Active; Activity [29]: Active; Activity [30]: Active; Activity [31]: Active; Activity [32]: Active; Activity [33]: Active; Activity [34]: Active; Activity [35]: Active; Activity [36]: Active; Activity [37]: Active; Activity [38]: Active
Cn1cc(C(=O)NOc2cccc(Cl)c2)c(OCc2cccc(C(F)(F)F)c2)n1 | Active | Non-toxic | Active | Active | Active | Active | Active | Active | Active | Active | Non-toxic | Active | Active | Active | Active | Active | Active | Active | Active | Active | Activity [21]: Active; Activity [22]: Active; Activity [23]: Active; Activity [24]: Active; Activity [25]: Active; Activity [26]: Active; Activity [27]: Active; Activity [28]: Active; Activity [29]: Active; Activity [30]: Active; Activity [31]: Active; Activity [32]: Active; Activity [33]: Active; Activity [34]: Active; Activity [35]: Active; Activity [36]: Active; Activity [37]: Active; Activity [38]: Active
CCCN(OCC)C(=O)c1cn(C)nc1OCc1cccc(C(F)(F)F)c1 | inactive | Non-toxic | inactive | inactive | Active | Active | Active | Active | Active | Active | Non-toxic | Active | Active | inactive | Active | Active | Active | Active | Active | Active | Activity [21]: Active; Activity [22]: Active; Activity [23]: Active; Activity [24]: Active; Activity [25]: Active; Activity [26]: Active; Activity [27]: Active; Activity [28]: Active; Activity [29]: Active; Activity [30]: Active; Activity [31]: Active; Activity [32]: Active; Activity [33]: Active; Activity [34]: Active; Activity [35]: Active; Activity [36]: Active; Activity [37]: Active; Activity [38]: Active
Cn1cc(C(=O)NOc2ccc(F)cc2)c(OCc2cccc(C(F)(F)F)c2)n1 | Active | Non-toxic | inactive | Active | Active | Active | Active | Active | inactive | inactive | Non-toxic | Active | Active | Active | Active | Active | Active | Active | Active | Active | Activity [21]: Active; Activity [22]: Active; Activity [23]: Active; Activity [24]: Active; Activity [25]: Active; Activity [26]: Active; Activity [27]: Active; Activity [28]: Active; Activity [29]: Active; Activity [30]: Active; Activity [31]: Active; Activity [32]: Active; Activity [33]: Active; Activity [34]: Active; Activity [35]: Active; Activity [36]: Active; Activity [37]: Active; Activity [38]: Active
